Measurements: patent US20250381180A1, “METHODS OF TREATING OR PREVENTING OVERACTIVE BLADDER SYNDROME” (Purdue Pharma L.P., priority 2022, published 2025)
Entries after “also recorded” stand apart in the source; their conditions may differ.

Legend:
conscious SCI rats [1] = settings: Beauval et al., 2015; cited from earlier work
conscious SCI rats [2] = assay: Cystometric parameters in conscious spinal cord injury (SCI) rats; assay type: in vivo, rat; settings: i.g., Cpd (IA) 30 mg/kg, mirabegron 10 mg/kg
Protocol: Test substance effects were compared to those of the reference substance, the β3-adrenoceptor agonist mirabegron, marketed for overactive bladder.
• At W-5, spinal cord injury was performed at T8 level as described below. • Over W-5, rats were treated daily with gentamicin. • Over W-5 and W-4, bladder was emptied manually once a day. • From W-5 to W0, animals were weighed once per week. • At D-2 (W0), implantation of catheters was performed under isoflurane anaesthesia as described below. • At D0 (W0), cystometry was performed
Rats were anesthetized with isoflurane (3%). Body temperature was constantly maintained at 37° C. throughout the surgery by placing animals on a thermo-regulated hot plate. A laminectomy was performed and the spinal cord was sectioned with microscissors at T8 level. Care was taken to assure that the section was complete by verifying that a slight retraction of the two segments occurred. Then the muscle was sutured and the skin fixed with staples. The scar was cleaned by Vetedine. For the Sham group, the same surgery was performed without section of the spinal cord.
The urinary bladder was squeezed once a day for 14 days with a gentle massage of the abdomen until restoration of the micturition reflex. In addition, they were administered intramuscularly daily for one week with gentamicin (2 mg/mL, 0.2 ml/rat). Animals were euthanized if they reached humane endpoints: weight loss of greater than 20% of their body weight and/or abnormal behavioral changes indicating presence of pain and distress (prostration, self-mutilation, aggressiveness).
Rats were anesthetized with isoflurane (3%). Body temperature was constantly maintained at 37° C. throughout the surgery by placing animals on a thermo-regulated hot plate. A polyethylene catheter (0.58 and 0.96 mm of inner and outer diameters, respectively) was implanted in the bladder through the dome for intravesical pressure recording. Another catheter (0.58 and 0.96 mm of inner and outer diameters, respectively) was implanted in the stomach for intra-gastric administration. Catheters were exteriorized at the scapular level. After surgery, each rat was housed individually up to the end of the protocol with free access to food and water.
Animals were held under partial restraint in a restraining device. Saline was infused into the bladder at a constant flow rate of 2 or 6 mL/h for sham or SCI rats, respectively. After at least 45 min (3 complete micturition cycles corresponding to basal values), test substances were administered by intra-gastric route. Then, intravesical pressure was recorded for 90 min.
The following cystometric parameters were analyzed (see FIG. 10): • Amplitude of micturition (AM, mmHg). • Threshold pressure (ThP, mmHg). • Intercontraction interval (ICI, sec): time between basal pressure and ThP. ICI was not presented due to different infusion rate in sham and SCI rats. ICI was only analyzed to calculate the bladder capacity. • Bladder capacity (BC, mL) BC=ICI×infusion rate. • Amplitude of non voiding contractions (NVC, mmHg) • Frequency of NVC (number per min).
For each cystometric parameter and for each time period, the comparisons were performed as described below: • Basal values of each cystometric parameter of Sham/Vehicle and SCI/Vehicle groups were compared using unpaired student t test • Basal values of each cystometric parameter of all SCI groups were compared using one-way ANOVA or Kruskal-Wallis test • The 3 interval periods of 30 min post treatment of each cystometric parameter within the same group were compared to corresponding basal values using one-way ANOVA with repeated measures or Friedman test followed by Dunnett's or Dunn's post-test, respectively. • The 3 interval periods of 30 min post treatment of each cystometric parameter were compared between all SCI groups using one-way ANOVA or Kruskal Wallis test followed by Holm-Sidak's or Dunn's post-test versus Vehicle, respectively.

conscious BOO rats [3] = assay: Cystometric parameters in conscious bladder outlet obstruction (BOO) rats; assay type: in vivo, rat; settings: i.g.; for BC, effect versus basal: Cpd (IA) 30 mg/kg, mirabegron 10 mg/kg
Protocol: Test substance effects were compared to those of the reference substance, mirabegron, marketed for overactive bladder.
• At W-6, a partial ligature of the urethra was performed. • At W-6, during 3 consecutive days, rats were treated daily with gentamycin and Ketofen® The bladder was emptied manually once a day. • From W-6 to W-1 animals were monitored and weighed once per week. • At W0 (D-2), catheters were implanted under isoflurane anesthesia. • At D0, cystometry was performed.
Appropriate amount of Cpd (IA) was weighed and dissolved in vehicle to obtain the dosing solution with the target concentration of 3 mg/mL (as free base). […]
[…] Mirabegron (from Kemprotec) was prepared fresh on the day of administration at a final concentration of 2 mg/mL (free base form). Appropriate mass of mirabegron was weighed and dissolved in vehicle (0.5% MC) at room temperature.

conscious BOO rats [4] = settings: Gillespy et al., 2012; cited from earlier work
[5] = system: rhythmic bladder contractions (RBC) in anesthetized female rats; assay: Isovolumetric model: rhythmic bladder contractions (RBC), cystometry; assay type: in vivo, rat; settings: for RBC amplitude, basal / RBC frequency, basal: basal period −30/0 min before i.v. administration, group mean
Description: In rats, under isovolumetric condition, bladder distension induced rhythmic bladder contractions (RBC) (Aizawa et al, (2015) Effects of L-arginine, mirabegron, and oxybutynin on the primary bladder afferent nerve activities synchronized with reflexic, rhythmic bladder contractions in the rat. Neurourology & Urodynamics 34:368-374). This isovolumetric model allows the evaluation of compound on RBC. It is a closed system where the bladder is slowly infused through a urethral catheter with saline until the occurrence of spontaneous rhythmic bladder contractions.
Test substance effects were compared to that of the reference substance, tolterodine, an […], marketed for overactive bladder in humans.
Protocol: • Animals were anesthetized with urethane (i.p.). • Ureters were ligated and sectioned close to the kidneys. • Intravesical catheter was inserted into the bladder though the urinary meatus. • Urinary meatus was closed. • A catheter was inserted into the jugular vein for compound administration. • Bladder was filled with saline until the occurrence of RBC. • After 30 min basal period, compounds were administered as described below. • The effect of the test substances was followed by 1-hour post administration.
Rats were anesthetized with an intraperitoneal administration of urethane (1 g/kg). The ureters were ligated and sectioned close to the kidneys. A catheter (0.30 and 0.70 mm of inner and outer diameters, respectively) was inserted through the urinary meatus into the bladder before urethral ligature. Another catheter (0.58 and 0.96 mm of inner and outer diameters, respectively) was inserted into the jugular vein for intravenous (i.v.) administration.
For all group, animals were treated by i.v. route (1 mL/kg) (slow bolus) after the basal period.
The vesical catheter was connected via a T-tube to a strain gauge (to measure intra-vesical pressure) and to a syringe. Isovolumetric bladder contractions were induced by stepwise injections of physiological saline at room temperature (100 μL every 5 min) until stable RBC occurred. Vesical pressure was continuously recorded. After a 30 min control period (basal values), substances or vehicle were i.v. administered. The effects of substances were followed during 60 min after administration. At the end of the experiments, animals were sacrificed by cervical dislocation.
The following parameters were analyzed: • Amplitude of RBC (mmHg) • Frequency of RBC (number/30 min) • Time of inhibition (sec)
The % variation from the basal values were calculated for RBC frequency and amplitude.
Statistical analysis and graphs were performed using GraphPad Prism® (GraphPad Software Inc., La Jolla, CA, USA). A p value <0.05 was accepted for statistical significance.

[6] = Urine concentrations in humans after a single oral dose; assay type: in vivo, human; settings: see Example 2
[7] = 0/60 min after i.v., Cpd (IA) 3 mg/kg (n=8), tolterodine 1 mg/kg, mean
[8] = 0/60 min after i.v., Cpd (IA) 3 mg/kg, tolterodine 1 mg/kg, mean
[9] = 0/60 min after i.v., Cpd (IA) 3 mg/kg, tolterodine 1 mg/kg, mean, listed as Tolterodine
[10] = i.v., Cpd (IA) 3 mg/kg, tolterodine 1 mg/kg, vs basal
[11] = i.v., Cpd (IA) 3 mg/kg, tolterodine 1 mg/kg, vs vehicle

C[C@H](Cc1ccc2c(c1)OC(C(=O)[O-])(C(=O)[O-])O2)NC[C@H](O)c1cccc(Cl)c1.[Na+].[Na+] [CL-316,243]
bladder capacity (conscious SCI rats [1]): significantly increase | frequency of NVC (conscious SCI rats [1]): reduce

Nc1nc(CC(=O)Nc2ccc(CCNC[C@H](O)c3ccccc3)cc2)cs1 [mirabegron, reference compound]
AM (amplitude of micturition), effect versus basal (conscious SCI rats [2]): did not significantly modify | AM (mmHg and % variation), effect versus vehicle (conscious SCI rats [2]): not significantly modified | BC expressed in % variation from basal, effect versus vehicle (conscious SCI rats [2]): not significantly modified | BC expressed in mL, effect versus vehicle (conscious SCI rats [2]): no significant difference | NVC amplitude (mmHg or % variation), effect versus vehicle (conscious SCI rats [2]): not significantly modified | NVC amplitude, effect versus basal (conscious SCI rats [2]): did not significantly modified | NVC frequency (NVC/min and % variation), effect versus vehicle (conscious SCI rats [2]): not significantly modified | NVC frequency, effect versus basal (conscious SCI rats [2]): significantly decreased NVC frequency for the 30-60 and 60-90 min interval periods; also recorded: slightly but significantly decreased | ThP (mmHg and % variation), effect versus vehicle (conscious SCI rats [2]): not significantly modified | ThP (threshold pressure), effect versus basal (conscious SCI rats [2]): significantly decreased ThP for the 60-90 min post-administration interval period | BC (bladder capacity), effect versus basal (conscious SCI rats [2]; 30-min interval periods to 90 min): did not significantly modify | AM (mmHg or % variation), effect versus vehicle (conscious BOO rats [3]; 0-90 min entire period): not significantly modified | AM, effect versus basal (conscious BOO rats [3]; 0-90 min entire period): did not significantly modify | BC expressed in % variation from basal, effect versus vehicle (conscious BOO rats [3]; 0-90 min entire period): not significantly modified | BC expressed in mL, effect versus vehicle (conscious BOO rats [3]; 0-90 min entire period): no significant difference | NVC amplitude expressed in % variation from basal, effect versus vehicle (conscious BOO rats [3]; 0-90 min entire period): significantly reduced | NVC amplitude expressed in mmHg, effect versus vehicle (conscious BOO rats [3]; 0-90 min entire period): not significantly modified | NVC amplitude, effect versus basal (conscious BOO rats [3]; 0-90 min entire period): did not modify | NVC frequency (NVC/min or % variation), effect versus vehicle (conscious BOO rats [3]; 0-90 min entire period): not significantly modified | NVC frequency, effect versus basal (conscious BOO rats [3]; 0-90 min entire period): significantly decreased | ThP expressed in % variation from basal, effect versus vehicle (conscious BOO rats [3]; 0-90 min entire period): no significant effect | ThP expressed in mmHg, effect versus vehicle (conscious BOO rats [3]; 0-90 min entire period): not significantly modified | ThP, effect versus basal (conscious BOO rats [3]; 0-90 min entire period): did not modify | AM (mmHg or % variation), effect versus vehicle (conscious BOO rats [3]; 60-90 min interval period): no effect | AM, effect versus basal (conscious BOO rats [3]; 60-90 min interval period): did not significantly modify | BC expressed in % variation from basal, effect versus vehicle (conscious BOO rats [3]; 60-90 min interval period): no significant difference | BC expressed in mL, effect versus vehicle (conscious BOO rats [3]; 60-90 min interval period): no significant difference | NVC amplitude expressed in % variation from basal, effect versus vehicle (conscious BOO rats [3]; 60-90 min interval period): significantly decreased | NVC amplitude expressed in mmHg, effect versus vehicle (conscious BOO rats [3]; 60-90 min interval period): not significantly modified | NVC amplitude, effect versus basal (conscious BOO rats [3]; 60-90 min interval period): significantly reduced | NVC frequency (NVC/min or % variation), effect versus vehicle (conscious BOO rats [3]; 60-90 min interval period): unaffected | NVC frequency, effect versus basal (conscious BOO rats [3]; 60-90 min interval period): significantly decreased | ThP expressed in % variation from basal, effect versus vehicle (conscious BOO rats [3]; 60-90 min interval period): significantly decreased | ThP expressed in mmHg, effect versus vehicle (conscious BOO rats [3]; 60-90 min interval period): not significantly modified | ThP, effect versus basal (conscious BOO rats [3]; 60-90 min interval period): without effect | BC, effect versus basal (conscious BOO rats [3]; 0-90 min entire period): did not significantly modify | BC, effect versus basal (conscious BOO rats [3]; 60-90 min interval period): significantly increased | frequency of NVC (conscious BOO rats [4]): reduces

Cc1ccc(O)c([C@H](CCN(C(C)C)C(C)C)c2ccccc2)c1 [tolterodine]
RBC amplitude, % variation from basal [5, 7]: −30.83±5.24% | RBC amplitude, treated period [5, 7]: 18.56 mmHg | RBC amplitude, % variation from basal ([5]; 0/60 min after i.v., Cpd (IA) 3 mg/kg (n=8), tolterodine 1 mg/kg, mean, listed as Tolterodine): −30.83% | RBC frequency, % variation from basal [5, 8]: −33.93±10.93% | RBC frequency, treated period [5, 8]: 15.30±2.72 nb of RBC/30 min | RBC frequency, % variation from basal [5, 9]: −33.93% | RBC frequency, treated period [5, 9]: 15.30 nb of RBC/30 min | Inhibition time ([5]; after i.v., Cpd (IA) 3 mg/kg, tolterodine 1 mg/kg, mean): 87.04 s | RBC amplitude, basal [5]: 27.22±2.03 mmHg | RBC frequency, basal [5]: 23.00±0.87 nb of RBC/30 min | RBC amplitude, basal ([5]; listed as Tolterodine): 27.22 mmHg | RBC frequency, basal ([5]; listed as Tolterodine): 23.00 nb of RBC/30 min | bladder afferent activity ([5]; conclusion of Example 1): no effect | bladder efferent activity ([5]; conclusion of Example 1): effectively inhibited | RBC amplitude, effect versus basal [5, 10]: significantly reduced | RBC frequency, effect versus basal [5, 10]: significantly decreased | RBC amplitude (% variation), effect versus vehicle [5, 11]: significantly reduced | RBC frequency (% variation), effect versus vehicle [5, 11]: did not significantly modify | time of inhibition, effect versus vehicle [5, 11]: no significant difference

O=C(O)c1nc2ccccc2n(C2CC3CCCC(C2)N3C2CC3CCCC(C3)C2)c1=O (stereo not shown) [compound of formula (I)]
route of excretion [6]: primarily excreted from the urine largely unchanged

O=C(O)c1nc2ccccc2n([C@H]2C[C@H]3CCC[C@@H](C2)N3C2CC3CCCC(C3)C2)c1=O (single isomer, unassigned) [compound of formula (I′)]
route of excretion [6]: primarily excreted from the urine largely unchanged
